Source: publication PMC9516332 (Frontiers in Oncology, 2022)
Read-outs that look alike come from different tables or passages of the source.

Legend:
Experiment in all cases: Kinase panel profiling at 1 µmol/L (MSA or IMAP), percentage inhibition
Format in all cases: biochemical
[1] = target: panel of 255 wild-type kinases (Homo sapiens, UniProt Q9BUB5); details: read-out: %-inhibition, MNK1
[2] = target: panel of 255 wild-type kinases (Homo sapiens, UniProt Q9Y243); details: read-out: %-inhibition AKT3
[3] = target: panel of 255 wild-type kinases (Homo sapiens, UniProt Q9UKE5); details: read-out: %-inhibition at 1 µmol/L, TNIK
[4] = target: T1, panel of 255 wild-type kinases (Homo sapiens, UniProt Q9UQB9); details: read-out: %-inhibition AurC
T1 sequence (Q9UQB9 1-309): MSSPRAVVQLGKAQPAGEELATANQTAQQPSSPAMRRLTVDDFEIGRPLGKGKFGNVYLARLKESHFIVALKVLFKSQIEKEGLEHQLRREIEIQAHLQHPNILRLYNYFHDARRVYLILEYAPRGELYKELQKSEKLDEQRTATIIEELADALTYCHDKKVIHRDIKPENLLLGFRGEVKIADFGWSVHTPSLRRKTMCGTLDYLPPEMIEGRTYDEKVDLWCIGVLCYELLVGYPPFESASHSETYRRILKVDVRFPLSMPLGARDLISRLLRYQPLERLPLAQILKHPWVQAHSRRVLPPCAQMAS

[5] = target: panel of 255 wild-type kinases (Homo sapiens, UniProt P51617); details: read-out: %-inhibition at 1 µmol/L, IRAK1
[6] = target: panel of 255 wild-type kinases (Homo sapiens, UniProt Q8N568); details: read-out: %-inhibition at 1 µmol/L, DCAMKL2
[7] = target: panel of 255 wild-type kinases (Homo sapiens, UniProt Q15303); details: read-out: %-inhibition at 1 µmol/L, HER4
[8] = target: panel of 255 wild-type kinases (Homo sapiens, UniProt Q9H1R3); details: read-out: %-inhibition at 1 µmol/L, skMLCK
[9] = target: panel of 255 wild-type kinases (Homo sapiens, UniProt P09769); details: read-out: %-inhibition at 1 µmol/L, FGR
[10] = target: panel of 255 wild-type kinases (Homo sapiens, UniProt Q13627); details: read-out: %-inhibition at 1 µmol/L, DYRK1A
[11] = target: T2, panel of 255 wild-type kinases (Homo sapiens, UniProt P54760); details: read-out: %-inhibition at 1 µmol/L, EPHB4
T2 sequence (P54760 16-987): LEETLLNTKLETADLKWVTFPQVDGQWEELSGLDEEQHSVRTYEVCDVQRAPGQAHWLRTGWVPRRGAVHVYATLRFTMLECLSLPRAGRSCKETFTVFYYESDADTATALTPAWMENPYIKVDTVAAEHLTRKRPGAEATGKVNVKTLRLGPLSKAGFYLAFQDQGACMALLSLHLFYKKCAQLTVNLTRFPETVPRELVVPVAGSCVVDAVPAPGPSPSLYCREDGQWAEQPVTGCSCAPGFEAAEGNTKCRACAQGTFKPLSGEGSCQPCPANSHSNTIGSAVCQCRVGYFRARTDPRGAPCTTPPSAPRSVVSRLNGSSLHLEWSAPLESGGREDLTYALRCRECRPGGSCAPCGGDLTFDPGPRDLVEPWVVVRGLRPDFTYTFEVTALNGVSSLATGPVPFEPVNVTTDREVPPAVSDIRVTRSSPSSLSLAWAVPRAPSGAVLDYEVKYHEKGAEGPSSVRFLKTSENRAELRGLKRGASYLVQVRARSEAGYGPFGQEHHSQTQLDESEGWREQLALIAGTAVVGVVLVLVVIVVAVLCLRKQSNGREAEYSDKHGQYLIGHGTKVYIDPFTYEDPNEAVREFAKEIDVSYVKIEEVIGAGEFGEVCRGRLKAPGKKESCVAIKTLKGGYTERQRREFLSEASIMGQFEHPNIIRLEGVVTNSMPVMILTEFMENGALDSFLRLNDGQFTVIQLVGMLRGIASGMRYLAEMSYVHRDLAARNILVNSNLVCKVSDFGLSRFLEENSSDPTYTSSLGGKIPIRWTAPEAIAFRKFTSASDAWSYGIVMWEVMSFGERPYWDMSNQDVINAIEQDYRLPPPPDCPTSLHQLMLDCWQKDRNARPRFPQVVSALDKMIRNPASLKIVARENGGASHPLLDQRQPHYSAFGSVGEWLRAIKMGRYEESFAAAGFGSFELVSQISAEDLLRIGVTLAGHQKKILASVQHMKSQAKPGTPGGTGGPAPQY

[12] = target: panel of 255 wild-type kinases (Homo sapiens, UniProt Q16539); details: read-out: %-inhibition, p38α
[13] = target: panel of 255 wild-type kinases (Homo sapiens, UniProt Q9UK32); details: read-out: %-inhibition at 1 µmol/L, RSK4
[14] = target: panel of 255 wild-type kinases (Homo sapiens, UniProt Q15375); details: read-out: %-inhibition at 1 µmol/L, EPHA7
[15] = MNK1, 1 µmol/L single concentration
[16] = AKT3 kinase assay, 1 µmol/L single concentration
[17] = kinase TNIK, 1 µmol/L single concentration
[18] = AurC kinase assay, 1 µmol/L single concentration
[19] = kinase IRAK1, 1 µmol/L single concentration
[20] = kinase DCAMKL2, 1 µmol/L single concentration
[21] = kinase HER4, 1 µmol/L single concentration
[22] = kinase skMLCK, 1 µmol/L single concentration
[23] = kinase FGR, 1 µmol/L single concentration
[24] = kinase DYRK1A, 1 µmol/L single concentration
[25] = kinase EPHB4, 1 µmol/L single concentration
[26] = p38α, 1 µmol/L single concentration
[27] = kinase RSK4, 1 µmol/L single concentration
[28] = kinase EPHA7, 1 µmol/L single concentration

`Cc1nc(NC(=O)N2CCC[C@H]2C(N)=O)sc1-c1ccnc(C(C)(C)C(F)(F)F)c1` [alpelisib] was tested. Which inhibition at 1 µM [1, 15] did it give?
Its inhibition at 1 µM is 2.72%.

What about the inhibition at 1 µM [2, 16] of the same compound?
The inhibition at 1 µM was -0.151%.

What about the inhibition at 1 µM [3, 17] of the same compound?
Its inhibition at 1 µM is 4.6%.

And the inhibition at 1 µM [4, 18]?
The inhibition at 1 µM was 4.51%.

And the inhibition at 1 µM [5, 19]?
The inhibition at 1 µM was -5.3%.

And the inhibition at 1 µM [6, 20]?
The inhibition at 1 µM was 6.52%.

What about the inhibition at 1 µM [7, 21] of the same compound?
Its inhibition at 1 µM is 2%.

What about the inhibition at 1 µM [8, 22] of the same compound?
The inhibition at 1 µM was -3.8%.

What about the inhibition at 1 µM [9, 23] of the same compound?
The inhibition at 1 µM was 2%.

What about the inhibition at 1 µM [10, 24] of the same compound?
The inhibition at 1 µM was 6%.

And the inhibition at 1 µM [11, 25]?
Its inhibition at 1 µM is 3.19%.

What about the inhibition at 1 µM [12, 26] of the same compound?
The inhibition at 1 µM was 2.59%.

And the inhibition at 1 µM [13, 27]?
The inhibition at 1 µM was -4%.

What about the inhibition at 1 µM [14, 28] of the same compound?
The inhibition at 1 µM was -1.3%.

`Cn1cc(-c2cc3c(N4CCN(c5ncc([C@@](C)(N)c6ccc(F)cc6)cn5)CC4)ncnn3c2)cn1` [avapritinib] was tested. Which inhibition at 1 µM [1, 15] did it give?
The inhibition at 1 µM was 72%.

What about the inhibition at 1 µM [2, 16] of the same compound?
Its inhibition at 1 µM is -5%.

What about the inhibition at 1 µM [3, 17] of the same compound?
The inhibition at 1 µM was 30%.

And the inhibition at 1 µM [4, 18]?
Its inhibition at 1 µM is 14%.

What about the inhibition at 1 µM [5, 19] of the same compound?
The inhibition at 1 µM was 8%.

And the inhibition at 1 µM [6, 20]?
The inhibition at 1 µM was 3.65%.

What about the inhibition at 1 µM [7, 21] of the same compound?
The inhibition at 1 µM was 25%.

What about the inhibition at 1 µM [8, 22] of the same compound?
Its inhibition at 1 µM is 1.29%.

What about the inhibition at 1 µM [9, 23] of the same compound?
Its inhibition at 1 µM is 66%.

And the inhibition at 1 µM [10, 24]?
The inhibition at 1 µM was 57%.

And the inhibition at 1 µM [11, 25]?
The inhibition at 1 µM was 34%.

And the inhibition at 1 µM [12, 26]?
Its inhibition at 1 µM is 0.843%.

What about the inhibition at 1 µM [13, 27] of the same compound?
The inhibition at 1 µM was 7.6%.

What about the inhibition at 1 µM [14, 28] of the same compound?
The inhibition at 1 µM was 13%.

What does the source list for `Cn1cnc2c(F)c(Nc3ccc(Br)cc3F)c(C(=O)NOCCO)cc21` [binimetinib]?
inhibition at 1 µM [1, 15]: 1.8%; inhibition at 1 µM [2, 16]: -5.69%; inhibition at 1 µM [3, 17]: 0.137%; inhibition at 1 µM [4, 18]: -6.37%; inhibition at 1 µM [5, 19]: 2.19%; inhibition at 1 µM [6, 20]: -13%; inhibition at 1 µM [7, 21]: 11%; inhibition at 1 µM [8, 22]: -5.4%; inhibition at 1 µM [9, 23]: 0.0227%; inhibition at 1 µM [10, 24]: -8%; inhibition at 1 µM [11, 25]: -0.0401%; inhibition at 1 µM [12, 26]: -8%; inhibition at 1 µM [13, 27]: -0.233%; inhibition at 1 µM [14, 28]: 0.598%

Which results are given for `CNC(=O)c1ccc(-c2cnc3ncc(Cc4ccc5ncccc5c4)n3n2)cc1F` [capmatinib]?
inhibition at 1 µM [1]: -1%; inhibition at 1 µM [2]: -5%; inhibition at 1 µM [3]: 1.68%; inhibition at 1 µM [4]: -4.72%; inhibition at 1 µM [5]: 35%; inhibition at 1 µM [6]: -1.61%; inhibition at 1 µM [7]: 21%; inhibition at 1 µM [8]: -2%; inhibition at 1 µM [9]: -1.79%; inhibition at 1 µM [10]: -0.902%; inhibition at 1 µM [11]: -1.2%; inhibition at 1 µM [12]: 3.37%; inhibition at 1 µM [13]: 8%; inhibition at 1 µM [14]: -0.309%

For `COc1cc2ncnc(Nc3ccc(F)c(Cl)c3)c2cc1NC(=O)/C=C/CN1CCCCC1` [dacomitinib], which inhibition at 1 µM [1, 15] is on record?
Its inhibition at 1 µM is 91%.

And the inhibition at 1 µM [2, 16]?
Its inhibition at 1 µM is -5%.

And the inhibition at 1 µM [3, 17]?
Its inhibition at 1 µM is 27%.

And the inhibition at 1 µM [4, 18]?
Its inhibition at 1 µM is 0.922%.

What about the inhibition at 1 µM [5, 19] of the same compound?
The inhibition at 1 µM was 76%.

What about the inhibition at 1 µM [6, 20] of the same compound?
Its inhibition at 1 µM is 1.42%.

What about the inhibition at 1 µM [7, 21] of the same compound?
The inhibition at 1 µM was 103%.

And the inhibition at 1 µM [8, 22]?
The inhibition at 1 µM was 10%.

What about the inhibition at 1 µM [9, 23] of the same compound?
Its inhibition at 1 µM is 58%.

And the inhibition at 1 µM [10, 24]?
Its inhibition at 1 µM is 9%.

And the inhibition at 1 µM [11, 25]?
The inhibition at 1 µM was 62%.

And the inhibition at 1 µM [12, 26]?
The inhibition at 1 µM was 39%.

What about the inhibition at 1 µM [13, 27] of the same compound?
The inhibition at 1 µM was 16%.

What about the inhibition at 1 µM [14, 28] of the same compound?
Its inhibition at 1 µM is 38%.

Which inhibition at 1 µM [1, 15] does the source give for `CN1CCN(c2ccc(C(=O)Nc3n[nH]c4ccc(Cc5cc(F)cc(F)c5)cc34)c(NC3CCOCC3)c2)CC1` [entrectinib] here?
The inhibition at 1 µM was -1%.

And the inhibition at 1 µM [2, 16]?
The inhibition at 1 µM was -1.28%.

What about the inhibition at 1 µM [3, 17] of the same compound?
The inhibition at 1 µM was 20%.

And the inhibition at 1 µM [4, 18]?
Its inhibition at 1 µM is 67%.

What about the inhibition at 1 µM [5, 19] of the same compound?
Its inhibition at 1 µM is 16%.

What about the inhibition at 1 µM [6, 20] of the same compound?
The inhibition at 1 µM was 16%.

What about the inhibition at 1 µM [7, 21] of the same compound?
The inhibition at 1 µM was 32%.

And the inhibition at 1 µM [8, 22]?
Its inhibition at 1 µM is 1.33%.

And the inhibition at 1 µM [9, 23]?
The inhibition at 1 µM was 95%.

What about the inhibition at 1 µM [10, 24] of the same compound?
The inhibition at 1 µM was -3.18%.

What about the inhibition at 1 µM [11, 25] of the same compound?
Its inhibition at 1 µM is 73%.

What about the inhibition at 1 µM [12, 26] of the same compound?
Its inhibition at 1 µM is 7%.

What about the inhibition at 1 µM [14, 28] of the same compound?
The inhibition at 1 µM was 44%.

Which results are given for `CCN1CCN(c2ccc(Nc3cc(N(C)C(=O)Nc4c(Cl)c(OC)cc(OC)c4Cl)ncn3)cc2)CC1` [infigratinib]?
inhibition at 1 µM [1, 15]: -1.75%; inhibition at 1 µM [2, 16]: -7%; inhibition at 1 µM [4, 18]: -7.58%; inhibition at 1 µM [6, 20]: 4.25%; inhibition at 1 µM [7, 21]: 26%; inhibition at 1 µM [8, 22]: -3%; inhibition at 1 µM [9, 23]: 46%; inhibition at 1 µM [10, 24]: -4%; inhibition at 1 µM [11, 25]: -0.369%; inhibition at 1 µM [12, 26]: 4.45%; inhibition at 1 µM [13, 27]: 7%; inhibition at 1 µM [14, 28]: -4%
